In patent EP0492136A2, “Retroviral protease inhibitors derived from 3-chloro-2-chloromethyl-1-propene” (AMERICAN CYANAMID COMPANY, priority 1990, dated 1992):

How the values were obtained:
[1] = target: T1, HIV-1 protease (Human immunodeficiency virus type 1 group M subtype B, UniProt P04585); test: in vitro inhibition of HIV-1 protease (octapeptide substrate cleavage, HPLC); type: biochemical; settings: substrate H-Val-Ser-Gln-Asn-Tyr-Pro-Ile-Val-OH
T1 construct: HIV-1 protease is available for purchase from Medigenics; purchased Medigenics, 701 Mercy Rd., Suite 420, Omaha, Nebraska 68106
Procedure: HIV-1 protease is available for purchase from Medigenics, 701 Mercy Rd., Suite 420, Omaha, Nebraska 68106. Protease activity is assayed using the octapeptide H-Val-Ser-Gln-Asn-Tyr-Pro-Ile-Val-OH as the substrate. Cleavage of the substrate is quantitated by measuring the production of H-Val-Ser-Gln-Asn-Tyr-OH by HPLC analysis by the method described by Tomaselli et al., (cited previously).

[2] = system: HTLV-IIIB strain of HIV-1; test: anti-HIV-1 activity in H9 based tissue culture, supernatant p24 antigen; type: cell-based; settings: for inhibition at 0.2 µg/mL / inhibition at 2 µg/mL / inhibition at 20 µg/mL: Human immunodeficiency virus 1, IIIB, read-out: % Inhibition p24; for % Inhibition p24: H9 culture, relative to infected control cultures
Procedure: Compounds are also tested for their ability to act as anti-HIV-1 compounds in tissue culture. The tests are performed in H9 based tissue culture challenged with HTLV-IIIB strain of HIV-1. The assay consists of evaluating the percent inhibition of supernatent p24 antigen concentrations relative to infected control cultures, as well as percent viable cells at 20 µg/ml in uninfected cells.

[3] = system: HIV-1 strain IIIB; test: inhibition of growth of HIV-1 in MT-2 cells, CPE (cell death) measured with MTT dye; type: cell-based; settings: T lymphoid MT-2 cell lines, after 5 days; for inhibition at 2.5 µg/mL / inhibition at 0.625 µg/mL: Human immunodeficiency virus 1, IIIB, MT2, 120 h, read-out: % Inhibition at Concentration
Text: In Table 3 data is shown for the ability of these compounds to inhibit growth of HIV-1 strain IIIB in T lymphoid MT-2 cell lines. The endpoint of these experiments after 5 days is CPE (cell death) measured with the metabolic MTT dye.

CC(C)CNC(=O)[C@H](Cc1ccccc1)CC(O)C[C@@H](Cc1ccccc1)C(=O)NCC(C)C (relative stereo) [Example 331, [R,(R*,R*)-N,N'-4-hydroxy-N,N'-bis(2-methylpropyl)-2,6-bis(phenylmethyl)heptanediamide]
IC50 [1]: 0.5 µM

CC(C)(C)NC(=O)C1CCCCN1CC(O)(CO)CN1CCCCC1C(=O)NC(C)(C)C (single isomer, unassigned) [58 (Isomer A)]
IC50 [1]: > 1000 µM

CC(C)(C)NC(=O)C1CCCCN1CC(O)(CO)CN1CCCCC1C(=O)NC(C)(C)C (single isomer, unassigned) [58 (Isomer B)]
IC50 [1]: 100 µM

CC(C)(C)NC(=O)C(Cc1ccccc1)CC(O)CC(Cc1ccccc1)C(=O)NC(C)(C)C (stereo not drawn) [Example 36]
IC50 [1]: 0.1 µM

O=C(NC1CCCC1)C(Cc1ccccc1)CC(O)CC(Cc1ccccc1)C(=O)NC1CCCC1 (stereo not drawn) [Example 39]
IC50 [1]: 0.01 µM

O=C(NCC1CCCCC1)C(Cc1ccccc1)CC(O)CC(Cc1ccccc1)C(=O)NCC1CCCCC1 (stereo not drawn) [Example 42]
IC50 [1]: 50 µM

CC(C)(C)OC(=O)NC1CCCCC1NC(=O)C(Cc1ccccc1)CC(O)CC(Cc1ccccc1)C(=O)NC1CCCCC1NC(=O)OC(C)(C)C (stereo not drawn) [Example 46]
IC50 [1]: 0.8 µM

CC(C)(C)NC(=O)CN(Cc1ccccc1)CC(O)(CO)CN(CC(=O)NC(C)(C)C)Cc1ccccc1 [Example 52]
inhibition at 0.2 µg/mL [2]: 0% | inhibition at 2 µg/mL [2]: 0% | inhibition at 20 µg/mL [2]: 90% | IC50 [1]: 5 µM

CC(C)(C)NC(=O)CN(Cc1ccccc1)CC(O)CN(CC(=O)NC(C)(C)C)Cc1ccccc1 [Example 53]
IC50 [1]: 100 µM

CCOC(=O)CN(Cc1ccccc1)CC(O)(CO)CN(CC(=O)NC(C)(C)C)Cc1ccccc1 (stereo not drawn) [Example 54]
IC50 [1]: 100 µM

CCOC(=O)CN(Cc1ccccc1)CC(O)(CO)CN(CC(=O)OCC)Cc1ccccc1 [Example 55]
inhibition at 0.2 µg/mL [2]: 0% | inhibition at 2 µg/mL [2]: 0% | inhibition at 20 µg/mL [2]: 0% | IC50 [1]: 100 µM

CCOC(=O)CN(CC1CCCCC1)CC(O)(CO)CN(CC(=O)OCC)CC1CCCCC1 [Example 60]
IC50 [1]: 50 µM

COC(=O)[C@H](Cc1ccccc1)NC(=O)[C@@H](NC(=O)[C@H](Cc1ccccc1)CC(O)C[C@@H](Cc1ccccc1)C(=O)N[C@H](C(=O)N[C@@H](Cc1ccccc1)C(=O)OC)C(C)C)C(C)C [Example 110, [R-(R*,R*)]-N^ω,N^ω'-(2,6-Bis(phenylmethyl)-4-hydroxy-1,7-dioxo-1,7-heptanediyl)bis[N-L-valyl-L-phenylalanine] dimethyl ester]
inhibition at 2.5 µg/mL ([3]; 2.5 µg/ml): 58.7% | inhibition at 0.625 µg/mL ([3]; .625 µg/ml): 16.6% | IC50 [1]: 0.01 µM

O=C(NC1CCCCC1Nc1ccncc1)C(Cc1ccccc1)CC(O)CC(Cc1ccccc1)C(=O)NC1CCCCC1Nc1ccncc1 (stereo not drawn) [Example 323, [1S-[1α[2R*,6R*,7(1R*,2R*)],2β]]-4-Hydroxy-2,6-bis(phenylmethyl)-N,N'-bis[[(4-pyridyl)amino]cyclohexyl]-heptanediamde]
% Inhibition at Concentration ([3]; 2.5 µg/ml): 3.1% | % Inhibition at Concentration ([3]; .625 µg/ml): 0.2% | IC50 [1]: 0.1 µM

O=C(NC1CCCCC1Nc1cccnc1)C(Cc1ccccc1)CC(O)CC(Cc1ccccc1)C(=O)NC1CCCCC1Nc1cccnc1 (stereo not drawn) [Example 324, [1S-[1α[2R*,6R*,7(1R*,2R*)],2β]]-4-Hydroxy-2,6-bis(phenylmethyl)-N,N'-bis[[(3-pyridyl)amino]cyclohexyl]-heptanediamde]
IC50 [1]: 0.1 µM

O=C(NC1CCCCC1Nc1ccccn1)C(Cc1ccccc1)CC(O)CC(Cc1ccccc1)C(=O)NC1CCCCC1Nc1ccccn1 (stereo not drawn) [Example 325, [1S-[1α[2R*,6R*,7(1R*,2R*)],2β]]-4-Hydroxy-2,6-bis(phenylmethyl)-N,N'-bis[[(2-pyridyl)amino]cyclohexyl]-heptanediamde]
% Inhibition at Concentration ([3]; 2.5 µg/ml): 3.8% | % Inhibition at Concentration ([3]; .625 µg/ml): 0.0% | IC50 [1]: 0.1 µM

CC(=O)NC1CCCCC1NC(=O)C(Cc1ccccc1)CC(O)CC(Cc1ccccc1)C(=O)NC1CCCCC1NC(C)=O (stereo not drawn) [Example 326, [1S-[1α[2R*,6R*,7(1R*,2R*)],2β]]-4-Hydroxy-2,6-bis(phenylmethyl)-N,N'-bis[[(2-acetyl)amino]cyclohexyl]-heptanediamde]
% Inhibition p24 ([2]; 2 µg/ml): 0% | % Inhibition p24 ([2]; 20 µg/ml): 3% | % Inhibition p24 ([2]; .2 µg/ml): 0% | IC50 [1]: 0.1 µM

O=C(Cc1ccccn1)NC1CCCCC1NC(=O)C(Cc1ccccc1)CC(O)CC(Cc1ccccc1)C(=O)NC1CCCCC1NC(=O)Cc1ccccn1 (stereo not drawn) [Example 327, [1S-[1α[2R*,6R*,7(1R*,2R*)],2β]]-4-Hydroxy-2,6-bis(phenylmethyl)-N,N'-bis[[((2-pyridyl)acetyl)amino]cyclohexyl]-heptanediamde]
% Inhibition at Concentration ([3]; 2.5 µg/ml): 3.2% | % Inhibition at Concentration ([3]; .625 µg/ml): 3.2% | IC50 [1]: 0.1 µM

CC(C)C(NC(=O)C(Cc1ccccc1)CC(O)CC(Cc1ccccc1)C(=O)NC(C(=O)NCc1nc2ccccc2[nH]1)C(C)C)C(=O)NCc1nc2ccccc2[nH]1 (stereo not drawn) [Example 328, [1S-[1R*[2S*,6S*,7R*],2R*]]-4-Hydroxy-2,6-bis(phenylmethyl)-N,N'-bis[1-[[(1-H-benzimidazoyl-2ylmethyl)amino]carbonyl]-2-methylpropyl]-heptanediamide]
inhibition at 2.5 µg/mL ([3]; 2.5 µg/ml): 72.8% | inhibition at 0.625 µg/mL ([3]; .625 µg/ml): 17.1% | IC50 [1]: 0.005 µM

CCC(C)C(NC(=O)C(Cc1ccccc1)CC(O)CC(Cc1ccccc1)C(=O)NC(C(=O)NCc1nc2ccccc2[nH]1)C(C)CC)C(=O)NCc1nc2ccccc2[nH]1 (stereo not drawn) [Example 329, [1S-[1R*[2S*,6S*,7(1R*,2R*)],2R*]]-4-Hydroxy-2,6-bis(phenylmethyl)-N,N'-bis[1-[[(1-H-benzimidazoyl-2ylmethyl)amino]carbonyl]-2-methylbutyl]heptanediamide]
inhibition at 2.5 µg/mL ([3]; 2.5 µg/ml): 97.9% | inhibition at 0.625 µg/mL ([3]; .625 µg/ml): 92.5% | IC50 [1]: 0.005 µM

O=C(NC1CCCCC1)[C@H](Cc1ccccc1)CC(O)C[C@@H](Cc1ccccc1)C(=O)NC1CCCCC1 [Example 330, [R-(R*,R*)]-N,N'dicyclohexyl-4-hydroxy-2,6-bis(phenylmethyl) heptanediamide]
inhibition at 0.2 µg/mL [2]: 0% | inhibition at 2 µg/mL [2]: 0% | inhibition at 20 µg/mL [2]: 0% | IC50 [1]: 0.1 µM
